Data from the supplement of paper PMC10307832.

Columns and labels:
Test in all cases: relative viability (nuclei count vs DMSO), 5 days (fraction); higher = more cells survive
Pictilisib + Lapatinib = compound: CS(=O)(=O)N1CCN(Cc2cc3nc(-c4cccc5[nH]ncc45)nc(N4CCOCC4)c3s2)CC1 [Pictilisib] + CS(=O)(=O)CCNCc1ccc(-c2ccc3ncnc(Nc4ccc(OCc5cccc(F)c5)c(Cl)c4)c3c2)o1 [Lapatinib] (partner 2 µM)
Procedure, shortened: (§1)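 Lung cancer cell lines in 1536-well plates were dosed by pin tool the day after seeding, either with one drug alone or with a fixed anchor-drug dose plus five library-drug doses (not always all listed) in √10 steps. After 5 days, cells were fixed and their nuclei stained in one step (final 0.05% Triton X-100, 1% formaldehyde, 1 ug/ml Hoechst), then counted on 4× images. Relative viability is the nuclei count in treated wells divided by that in vehicle wells. Values are medians of duplicate plates.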

MK-2206 + Trametinib = compound: NC1(c2ccc(-c3nc4ccn5c(=O)[nH]nc5c4cc3-c3ccccc3)cc2)CCC1 [MK-2206] + CC(=O)Nc1cccc(-n2c(=O)n(C3CC3)c(=O)c3c(Nc4ccc(I)cc4F)n(C)c(=O)c(C)c32)c1 [Trametinib] (partner 0.02 µM)
Procedure, shortened: as §1

MK-2206 + Foretinib = compound: NC1(c2ccc(-c3nc4ccn5c(=O)[nH]nc5c4cc3-c3ccccc3)cc2)CCC1 [MK-2206] + COc1cc2c(Oc3ccc(NC(=O)C4(C(=O)Nc5ccc(F)cc5)CC4)cc3F)ccnc2cc1OCCCN1CCOCC1 [Foretinib] (partner 0.25 µM)
Procedure, shortened: as §1

MK-2206 + Linsitinib = compound: NC1(c2ccc(-c3nc4ccn5c(=O)[nH]nc5c4cc3-c3ccccc3)cc2)CCC1 [MK-2206] + C[C@]1(O)C[C@@H](c2nc(-c3ccc4ccc(-c5ccccc5)nc4c3)c3c(N)nccn32)C1 [Linsitinib] (partner 1 µM)
Procedure, shortened: as §1

MK-2206 + Alpelisib = compound: NC1(c2ccc(-c3nc4ccn5c(=O)[nH]nc5c4cc3-c3ccccc3)cc2)CCC1 [MK-2206] + Cc1nc(NC(=O)N2CCC[C@H]2C(N)=O)sc1-c1ccnc(C(C)(C)C(F)(F)F)c1 [Alpelisib] (partner 2 µM)
Procedure, shortened: as §1

Cell Line | relative viability (Pictilisib + Lapatinib; first compound 0.02 µM) | relative viability (Pictilisib + Lapatinib; first compound 0.06325 µM) | relative viability (Pictilisib + Lapatinib; first compound 0.6325 µM) | relative viability (Pictilisib + Lapatinib; first compound 2 µM) | relative viability (MK-2206 + Trametinib; first compound 0.01 µM) | relative viability (MK-2206 + Trametinib; first compound 0.03162 µM) | relative viability (MK-2206 + Trametinib; first compound 0.3162 µM) | relative viability (MK-2206 + Trametinib; first compound 1 µM) | relative viability (MK-2206 + Foretinib; first compound 0.01 µM) | relative viability (MK-2206 + Foretinib; first compound 0.03162 µM) | relative viability (MK-2206 + Foretinib; first compound 0.3162 µM) | relative viability (MK-2206 + Foretinib; first compound 1 µM) | relative viability (MK-2206 + Linsitinib; first compound 0.01 µM) | relative viability (MK-2206 + Linsitinib; first compound 0.03162 µM) | relative viability (MK-2206 + Linsitinib; first compound 0.3162 µM) | relative viability (MK-2206 + Linsitinib; first compound 1 µM) | relative viability (MK-2206 + Alpelisib; first compound 0.01 µM) | relative viability (MK-2206 + Alpelisib; first compound 0.03162 µM) | relative viability (MK-2206 + Alpelisib; first compound 0.3162 µM) | relative viability (MK-2206 + Alpelisib; first compound 1 µM)
NCI-H1355 | 1.01 | 1 | 0.981 | 0.615 | 0.407 | 0.414 | 0.363 | 0.378 | 0.94 | 1.02 | 0.952 | 0.952 | 0.768 | 0.805 | 0.726 | 0.786 | 0.886 | 0.813 | 0.789 | 0.783
NCI-H1395 | 1.18 | 1.1 | 0.884 | 0.563 | 1.02 | 1.16 | 0.804 | 0.897 | 1.03 | 0.966 | 0.885 | 0.922 | 1.22 | 1.03 | 0.915 | 1.23 | 1.1 | 1.13 | 0.926 | 0.825
NCI-H1437 | 0.768 | 0.859 | 0.605 | 0.313 | 0.577 | 0.51 | 0.44 | 0.403 | 1.19 | 1.27 | 1.35 | 1.35 | 0.99 | 1.08 | 0.948 | 0.951 | 0.983 | 0.979 | 0.764 | 0.83
NCI-H1651 | 0.919 | 0.721 | 0.568 | 0.424 | 0.797 | 0.849 | 0.853 | 0.819 | 0.724 | 0.658 | 0.834 | 0.733 | 0.906 | 0.915 | 0.874 | 0.937 | 0.921 | 0.906 | 0.938 | 0.898
NCI-H1666 | 0.666 | 0.725 | 0.476 | 0.307 | 0.925 | 0.79 | 0.807 | 0.892 | 1 | 0.985 | 1.02 | 0.91 | 0.753 | 0.73 | 0.695 | 0.709 | 0.957 | 0.89 | 0.729 | 0.735
NCI-H1734 | 1.1 | 1.11 | 0.653 | 0.41 | 0.633 | 0.646 | 0.535 | 0.478 | 1 | 0.994 | 0.682 | 0.64 | 0.816 | 0.934 | 0.632 | 0.584 | 0.709 | 0.625 | 0.451 | 0.521
NCI-H1755 | 1.04 | 1 | 0.93 | 0.537 | 0.756 | 0.768 | 0.671 | 0.699 | 0.929 | 0.986 | 0.816 | 0.823 | 0.997 | 0.996 | 0.903 | 0.876 | 0.919 | 0.93 | 0.881 | 0.863
NCI-H1793 | 0.693 | 0.963 | 0.61 | 0.336 | 0.4 | 0.433 | 0.298 | 0.391 | 0.786 | 0.779 | 0.834 | 0.578 | 0.81 | 0.886 | 0.641 | 0.675 | 0.721 | 0.816 | 0.634 | 0.727
NCI-H1915 | 0.96 | 1.02 | 0.916 | 0.935 | 0.3 | 0.315 | 0.282 | 0.293 | 1.08 | 1.16 | 1.07 | 1.05 | 1.12 | 1.07 | 1.04 | 1.09 | 1.05 | 1.1 | 1.04 | 1.08
NCI-H1944 | 0.969 | 0.753 | 0.597 | 0.402 | 0.405 | 0.41 | 0.392 | 0.385 | 0.889 | 1 | 0.887 | 0.829 | 1.27 | 1.17 | 1.15 | 1.17 | 0.912 | 0.834 | 0.833 | 0.752
NCI-H1975 | 0.94 | 0.781 | 0.541 | 0.212 | 0.305 | 0.352 | 0.261 | 0.371 | 1.08 | 0.96 | 0.91 | 0.801 | 1.02 | 0.81 | 0.679 | 0.72 | 0.657 | 0.551 | 0.509 | 0.487
NCI-H1993 | 0.878 | 0.895 | 0.783 | 0.705 | 0.61 | 0.422 | 0.43 | 0.419 | 0.761 | 0.773 | 0.665 | 0.57 | 0.681 | 0.811 | 0.704 | 0.71 | 0.73 | 0.668 | 0.663 | 0.652
NCI-H2009 | 1.06 | 0.932 | 0.858 | 0.844 | 0.252 | 0.299 | 0.248 | 0.254 | 1.26 | 1.18 | 1.24 | 1.16 | 1.15 | 1.16 | 1.16 | 1.02 | 1.16 | 1.17 | 1.14 | 1.12
NCI-H2023 | 0.78 | 0.611 | 0.349 | 0.243 | 0.514 | 0.532 | 0.38 | 0.376 | 0.943 | 0.972 | 0.922 | 0.722 | 0.642 | 0.586 | 0.438 | 0.312 | 0.517 | 0.598 | 0.472 | 0.405
NCI-H2085 | 0.767 | 0.767 | 0.535 | 0.391 | 0.527 | 0.52 | 0.292 | 0.36 | 0.921 | 1.07 | 1 | 0.735 | 0.915 | 0.85 | 0.815 | 0.692 | 0.928 | 0.914 | 0.807 | 0.702
NCI-H2087 | 1.12 | 0.926 | 1.06 | 0.952 | 0.246 | 0.211 | 0.176 | 0.133 | 1.11 | 1.1 | 1.17 | 1.08 | 0.965 | 0.906 | 0.791 | 0.914 | 1.17 | 1.03 | 1.12 | 1.1
